Assay [1] deals with IL-6 production. Kind of assay: LPS-induced IL-6 production in MonoMac-6 cells (ELISA). The format is cell-based. To be noted: Homo sapiens, MONO-MAC-6, 24 h, N.A.: not active at the highest tested concentration (50 μM). As for the experimental part: Human MonoMac-6 monocyte/macrophage cells (Deutsche Sammlung von Mikroorganismen und Zellkulturen GmbH, Braunschweig, Germany) were cultured in RPMI 1640 medium containing 10% (v/v) FBS, 10 μg/mL bovine insulin, 100 μg/mL streptomycin, and 100 U/mL penicillin.
An IL-6 ELISA kit (BD Biosciences, San Jose, CA, USA) was used to assess the effect of selected compounds on IL-6 production. MonoMac-6 cells were plated in 96-well plates at a density of 2 × 10^5 cells/well in culture medium supplemented with 3% (v/v) endotoxin-free FBS. Cells were pretreated with test compound or DMSO for 30 min, followed by addition of 200 ng/mL LPS for 24 h. For selected compounds, the IC50 for cytokine production was calculated by plotting percentage inhibition against the logarithm of inhibitor concentration (at least five points).
In general terms: ELISA stands for enzyme-linked immunosorbent assay.

Assay [2] relates to proinflammatory cytokine production. Nature of the assay: Multiplex human cytokine ELISA, LPS-stimulated MonoMac-6 cells. Type of assay: cell-based. The following applies: 10 μM compound, 24 h, versus DMSO-treated control. The source says: A multiplex human cytokine ELISA kit from Anogen (Mississauga, ON, Canada) was used to evaluate various cytokines (IL-1α, IL-1β, IL-6, GM-CSF, MCP-1, IFN-γ, and TNF) in the supernatants of MonoMac-6 cells.

Assay [3] concerns the target T1, DYRK1A (Homo sapiens, UniProt Q13627).
T1 construct: purchased Eurofins Pharma Discovery (KINOMEscan)
Nature of the assay: KINOMEscan. The format is binding. The following applies: for Kd: DYRK1A, N.B.: no binding at concentrations up to 30 µM. As for the experimental part: (§1) Kinase profiling was performed by KINOMEscan (Eurofins Pharma Discovery, San Diego, CA, USA), using a panel of 423 protein kinases, as described previously. Compounds were submitted for dissociation constant (Kd) determination toward several target kinases using KINOMEscan. […] Binding reactions were performed at room temperature for 1 h, and the fraction of kinase not bound to the test compound was determined by capture with an immobilized affinity ligand and quantified by quantitative polymerase chain reaction. The primary screening at fixed concentrations of the compound was performed in duplicate. For dissociation constant Kd determination, a 12-point half-log dilution series (a maximum concentration of 33 μM) was used.

The target in assay [4] is T2, HIPK3 (Homo sapiens, UniProt Q9H422).
T2 construct: purchased Eurofins Pharma Discovery (KINOMEscan)
Nature of the assay: KINOMEscan. Type of assay: binding. The following applies: for Kd: HIPK3, N.B.: no binding at concentrations up to 30 µM. As for the experimental part: as §1

Assay [5] deals with T3, HASPIN (Homo sapiens, UniProt Q8TF76).
T3 construct: purchased Eurofins Pharma Discovery (KINOMEscan)
T3 sequence (Q8TF76 1-798): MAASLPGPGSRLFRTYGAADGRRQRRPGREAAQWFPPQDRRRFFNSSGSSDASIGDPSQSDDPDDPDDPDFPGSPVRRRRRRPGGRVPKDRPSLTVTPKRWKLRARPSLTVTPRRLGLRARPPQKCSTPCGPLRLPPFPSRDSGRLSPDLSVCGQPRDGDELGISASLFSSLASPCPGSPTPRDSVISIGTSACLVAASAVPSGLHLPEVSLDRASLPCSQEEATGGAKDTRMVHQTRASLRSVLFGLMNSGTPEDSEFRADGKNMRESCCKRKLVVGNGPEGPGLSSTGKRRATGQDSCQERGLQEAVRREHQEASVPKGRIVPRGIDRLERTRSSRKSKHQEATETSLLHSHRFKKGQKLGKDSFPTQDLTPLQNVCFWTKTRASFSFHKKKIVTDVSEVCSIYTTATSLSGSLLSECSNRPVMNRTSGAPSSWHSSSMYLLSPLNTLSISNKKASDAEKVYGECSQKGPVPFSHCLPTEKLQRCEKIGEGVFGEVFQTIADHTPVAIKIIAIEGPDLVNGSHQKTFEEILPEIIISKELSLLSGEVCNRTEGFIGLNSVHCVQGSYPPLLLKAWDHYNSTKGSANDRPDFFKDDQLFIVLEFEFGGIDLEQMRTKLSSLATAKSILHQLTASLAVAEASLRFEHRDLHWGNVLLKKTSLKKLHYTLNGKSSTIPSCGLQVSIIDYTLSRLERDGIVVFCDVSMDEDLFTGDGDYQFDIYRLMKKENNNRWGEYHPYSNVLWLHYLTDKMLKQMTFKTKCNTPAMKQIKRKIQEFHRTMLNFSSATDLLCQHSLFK
Kind of assay: KINOMEscan. The format is binding. To be noted: for Kd: Haspin, N.B.: no binding at concentrations up to 30 µM. As for the experimental part:
as §1

Assay [6] deals with T4, HIPK1 (Homo sapiens, UniProt Q86Z02).
T4 construct: purchased Eurofins Pharma Discovery (KINOMEscan)
Kind of assay: KINOMEscan. Type of assay: binding. The following applies: for Kd: HIPK1, N.B.: no binding at concentrations up to 30 µM. The protocol: as §1

Assay [7] deals with T5, DAPK2 (Homo sapiens, UniProt Q9UIK4).
T5 construct: purchased Eurofins Pharma Discovery (KINOMEscan)
Nature of the assay: KINOMEscan. Type of assay: binding. The following applies: for Kd: DAPK2, N.B.: no binding at concentrations up to 30 µM. As for the experimental part:
as §1

Assay [8] addresses T6, PIM1 (Homo sapiens, UniProt P11309).
T6 construct: purchased Eurofins Pharma Discovery (KINOMEscan)
Kind of assay: KINOMEscan. The format is binding. To be noted: for Kd: PIM1, N.B.: no binding at concentrations up to 30 µM. As for the experimental part:
as §1

Broadly, the IC50 is the midpoint of a concentration-inhibition curve. A higher IC50 goes with weaker potency in that assay. Broadly, the Kd is the constant that tells how readily two partners part at equilibrium. Usually inhibition stands for how much of the control response was suppressed.

Molecules are shown by their SMILES.

T6 sequence (P11309 whole entry): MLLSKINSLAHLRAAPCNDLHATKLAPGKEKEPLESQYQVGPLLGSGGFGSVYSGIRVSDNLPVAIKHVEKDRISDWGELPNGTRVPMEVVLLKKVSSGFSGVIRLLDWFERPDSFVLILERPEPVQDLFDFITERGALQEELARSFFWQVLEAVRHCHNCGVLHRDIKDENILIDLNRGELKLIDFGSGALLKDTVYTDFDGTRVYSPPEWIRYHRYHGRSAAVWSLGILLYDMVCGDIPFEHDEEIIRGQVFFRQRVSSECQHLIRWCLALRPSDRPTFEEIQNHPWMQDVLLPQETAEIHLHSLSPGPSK
T5 sequence (Q9UIK4 whole entry): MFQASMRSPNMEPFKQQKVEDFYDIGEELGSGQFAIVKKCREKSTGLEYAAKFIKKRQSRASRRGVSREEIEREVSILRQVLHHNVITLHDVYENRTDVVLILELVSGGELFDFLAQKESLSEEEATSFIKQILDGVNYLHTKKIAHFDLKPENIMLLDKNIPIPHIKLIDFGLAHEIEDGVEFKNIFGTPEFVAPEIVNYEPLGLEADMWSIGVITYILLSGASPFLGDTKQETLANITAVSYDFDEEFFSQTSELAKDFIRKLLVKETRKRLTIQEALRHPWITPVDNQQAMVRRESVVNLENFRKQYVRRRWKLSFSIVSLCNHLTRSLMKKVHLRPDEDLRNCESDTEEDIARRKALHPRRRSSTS
T2 sequence (Q9H422 whole entry): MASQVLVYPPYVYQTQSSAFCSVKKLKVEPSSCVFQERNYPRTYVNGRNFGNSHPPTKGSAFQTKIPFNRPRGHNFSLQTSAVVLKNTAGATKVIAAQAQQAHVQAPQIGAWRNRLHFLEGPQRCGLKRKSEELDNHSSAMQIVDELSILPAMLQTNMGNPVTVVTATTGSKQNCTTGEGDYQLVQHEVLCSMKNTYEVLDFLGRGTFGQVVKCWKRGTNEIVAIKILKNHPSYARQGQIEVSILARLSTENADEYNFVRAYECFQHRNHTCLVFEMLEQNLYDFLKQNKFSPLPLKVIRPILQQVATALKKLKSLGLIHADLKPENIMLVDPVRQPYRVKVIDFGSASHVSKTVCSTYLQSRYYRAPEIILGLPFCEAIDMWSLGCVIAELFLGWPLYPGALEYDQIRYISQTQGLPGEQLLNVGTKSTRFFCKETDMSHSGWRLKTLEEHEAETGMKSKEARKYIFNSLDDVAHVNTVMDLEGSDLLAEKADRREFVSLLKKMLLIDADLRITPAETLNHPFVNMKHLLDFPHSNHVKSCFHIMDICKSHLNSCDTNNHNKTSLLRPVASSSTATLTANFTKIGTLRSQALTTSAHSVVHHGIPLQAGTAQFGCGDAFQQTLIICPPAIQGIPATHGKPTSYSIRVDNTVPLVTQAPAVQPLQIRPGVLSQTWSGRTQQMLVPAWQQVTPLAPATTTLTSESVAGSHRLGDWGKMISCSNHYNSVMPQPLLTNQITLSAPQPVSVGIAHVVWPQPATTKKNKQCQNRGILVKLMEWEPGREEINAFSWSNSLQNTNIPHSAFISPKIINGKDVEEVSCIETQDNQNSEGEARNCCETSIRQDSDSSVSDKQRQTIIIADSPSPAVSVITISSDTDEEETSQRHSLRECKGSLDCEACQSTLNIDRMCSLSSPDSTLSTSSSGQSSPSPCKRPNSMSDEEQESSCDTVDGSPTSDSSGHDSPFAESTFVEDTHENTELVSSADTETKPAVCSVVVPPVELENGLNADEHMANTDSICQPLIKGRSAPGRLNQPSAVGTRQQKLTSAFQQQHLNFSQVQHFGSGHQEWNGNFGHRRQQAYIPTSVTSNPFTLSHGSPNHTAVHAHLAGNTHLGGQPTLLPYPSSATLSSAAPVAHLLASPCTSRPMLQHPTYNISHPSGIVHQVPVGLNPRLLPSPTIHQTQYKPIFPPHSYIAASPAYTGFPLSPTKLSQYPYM
T4 sequence (Q86Z02 whole entry): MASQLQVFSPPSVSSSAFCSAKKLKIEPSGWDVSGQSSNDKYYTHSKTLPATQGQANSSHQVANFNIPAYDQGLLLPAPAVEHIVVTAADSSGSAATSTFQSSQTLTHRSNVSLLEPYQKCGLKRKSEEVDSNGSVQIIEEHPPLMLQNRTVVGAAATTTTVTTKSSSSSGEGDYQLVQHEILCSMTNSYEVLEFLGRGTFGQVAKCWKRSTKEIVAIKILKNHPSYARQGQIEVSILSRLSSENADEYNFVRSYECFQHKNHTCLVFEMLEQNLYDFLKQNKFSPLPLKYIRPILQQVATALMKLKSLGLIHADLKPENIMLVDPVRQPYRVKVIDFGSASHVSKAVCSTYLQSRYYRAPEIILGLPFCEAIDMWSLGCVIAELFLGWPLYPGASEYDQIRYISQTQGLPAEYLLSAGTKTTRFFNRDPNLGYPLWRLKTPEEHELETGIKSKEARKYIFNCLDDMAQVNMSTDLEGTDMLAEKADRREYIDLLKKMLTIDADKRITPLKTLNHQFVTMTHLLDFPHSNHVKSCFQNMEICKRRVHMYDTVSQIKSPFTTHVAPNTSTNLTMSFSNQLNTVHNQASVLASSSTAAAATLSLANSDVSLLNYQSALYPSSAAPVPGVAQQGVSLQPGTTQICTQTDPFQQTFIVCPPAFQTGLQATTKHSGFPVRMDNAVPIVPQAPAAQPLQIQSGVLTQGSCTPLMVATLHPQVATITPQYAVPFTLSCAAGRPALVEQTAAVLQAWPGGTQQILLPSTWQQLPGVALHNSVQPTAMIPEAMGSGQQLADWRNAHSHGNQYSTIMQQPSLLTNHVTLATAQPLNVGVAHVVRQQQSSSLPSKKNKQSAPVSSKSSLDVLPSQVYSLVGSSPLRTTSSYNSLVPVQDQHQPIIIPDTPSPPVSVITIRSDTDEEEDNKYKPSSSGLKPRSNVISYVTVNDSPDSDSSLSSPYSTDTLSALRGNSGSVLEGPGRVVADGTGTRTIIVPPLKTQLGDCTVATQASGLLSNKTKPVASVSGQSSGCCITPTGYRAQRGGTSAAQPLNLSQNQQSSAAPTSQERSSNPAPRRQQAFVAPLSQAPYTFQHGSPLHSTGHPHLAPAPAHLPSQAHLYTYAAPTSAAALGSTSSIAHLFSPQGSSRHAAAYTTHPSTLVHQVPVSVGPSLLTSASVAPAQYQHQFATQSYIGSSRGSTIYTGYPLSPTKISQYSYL

For the compound `O=C1Nc2c(ccc3c2CCCC3)C1=NO` [Compound 5a, 3-(Hydroxyimino)-1,3,6,7,8,9-hexahydro-2H-benzo[g]indol-2-one], it took 48.3 ± 4.4 µM to reach half-maximal inhibition in assay [1] (IC50). In addition, in assay [2], the “inhibition of secretion of IL-1α, IL-1β, IL-6, TNF and MCP-1” value is given as “less effective”. Further, the Kd in assay [3] turned out to be 0.85 ± 0.12 µM; in assay [4], 1.3 ± 0.3 µM; in assay [5] it was 0.61 ± 0.08 µM; in assay [6], 1.1 ± 0.07 µM; in assay [7] it was 7.7 ± 1.1 µM; in assay [8] it was 1.8 ± 0.1 µM.
Consider `O=C1Nc2c(cc([N+](=O)[O-])c3c2CCCC3)C1=NO` [Compound 5d, 3-(Hydroxyimino)-5-nitro-1,3,6,7,8,9-hexahydro-2H-benzo[g]indol-2-one], for which it took 12.6 ± 3.2 µM to reach half-maximal inhibition in assay [1] (IC50). Further, the “inhibition of secretion of IL-1α, IL-1β, IL-6, TNF and MCP-1” value in assay [2] is reported as “inhibited”. The inhibition at 10 µM is 98.8% in assay [3] (10 μM); 100% in assay [4] (10 μM); 99.5% in assay [5] (10 μM); 98.5% in assay [6] (10 μM); 98.9% in assay [7] (10 μM); 98.2% in assay [8] (10 μM). For the same compound, the Kd in assay [3] was 0.435 ± 0.078 µM; in assay [4], 0.135 ± 0.07 µM; in assay [5], 0.165 ± 0.021 µM; in assay [6] it was 0.52 ± 0.113 µM; in assay [7], 0.2 ± 0.042 µM; in assay [8] it was 0.122 ± 0.054 µM.

The record behind these values is paper PMC12300041, “Tricyclic Isatin Derivatives as Anti-Inflammatory Compounds with High Kinase Binding Affinity” (Molecules, 2025).
